Test results published in PubChem BioAssay (NCI).
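A five-concentration, 48-hour dose response in 96-well plates underlies each endpoint, interpolated linearly between surrounding concentrations. GI50 is the concentration that inhibits growth by half. The concentration for full growth arrest is given as TGI.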

Key:
Assay in all cases: NCI-60 cell line screen, 48 h
HOP-62 NSCLC = system: HOP-62 NSCLC
SF-539 CNS = system: SF-539 CNS
HL-60(TB) leukemia = system: HL-60(TB) leukemia
SF-295 CNS = system: SF-295 CNS
HT29 colon = system: HT29 colon
UO-31 renal = system: UO-31 renal
SK-MEL-5 melanoma = system: SK-MEL-5 melanoma
OVCAR-5 ovarian = system: OVCAR-5 ovarian
NCI-H460 lung = system: NCI-H460 lung
MDA-MB-231 breast = system: MDA-MB-231 breast

Compound	TGI (HOP-62 NSCLC)	TGI (SF-539 CNS)	TGI (HL-60(TB) leukemia)	TGI (SF-295 CNS)	TGI (HT29 colon)	TGI (UO-31 renal)	TGI (SK-MEL-5 melanoma)	TGI (OVCAR-5 ovarian)	TGI (NCI-H460 lung)	GI50 (HOP-62 NSCLC)	GI50 (SF-539 CNS)	GI50 (HL-60(TB) leukemia)	GI50 (HT29 colon)	GI50 (UO-31 renal)	GI50 (SK-MEL-5 melanoma)	GI50 (OVCAR-5 ovarian)	GI50 (NCI-H460 lung)	GI50 (MDA-MB-231 breast)	TGI (MDA-MB-231 breast)
O=C1C(=O)C(Br)(Br)C(Br)=C1Br	> 100 µM	33.4 µM	38.2 µM	> 100 µM	38.5 µM	33.5 µM	29.4 µM	26.8 µM	> 100 µM	–	–	–	–	–	–	–	–	–	–
CC(=O)N=c1ccc2nc3c(cc(N)c4ccccc43)oc-2c1	1.83 µM	3.05 µM	6.8 µM	–	4.62 µM	2.46 µM	1.35 µM	3.94 µM	4.24 µM	0.573 µM	1.63 µM	0.279 µM	2.09 µM	1.03 µM	0.33 µM	1.8 µM	1.85 µM	1.25 µM	3.92 µM
CCN(CC)C(=O)COc1ccc(Br)cc1Br	> 100 µM	> 100 µM	> 100 µM	> 100 µM	> 100 µM	> 100 µM	> 100 µM	> 100 µM	> 100 µM	–	–	–	–	–	–	–	–	–	–
O=C(COc1ccccc1)NS(=O)(=O)c1ccccc1	> 100 µM	> 100 µM	> 100 µM	> 100 µM	> 100 µM	> 100 µM	–	> 100 µM	> 100 µM	–	–	–	–	–	–	–	–	–	–
O=c1cnn2c(n1)sc1ccc3ccccc3c12	> 100 µM	> 100 µM	> 100 µM	> 100 µM	> 100 µM	> 100 µM	> 100 µM	> 100 µM	> 100 µM	–	–	–	–	–	–	–	–	–	–
Cc1ccccc1C(C#N)C(=O)C(=O)Nc1cccc(Cl)c1 (stereo unspecified)	> 100 µM	> 100 µM	> 100 µM	> 100 µM	> 100 µM	> 100 µM	> 100 µM	> 100 µM	> 100 µM	–	–	–	–	–	–	–	–	–	–
Nc1c(-c2ccc(Cl)cc2Cl)[n+]([O-])c2ccccc2[n+]1[O-]	> 100 µM	> 100 µM	> 100 µM	> 100 µM	> 100 µM	> 100 µM	> 100 µM	> 100 µM	> 100 µM	–	–	–	–	–	–	–	–	–	–
O=C(Nc1nc2ncn(CC(COc3ccccc3)OC(=O)c3ccccc3)c2c(=O)[nH]1)c1ccccc1 (stereo unspecified)	> 100 µM	> 100 µM	> 100 µM	> 100 µM	> 100 µM	> 100 µM	> 100 µM	> 100 µM	–	–	–	–	–	–	–	–	–	–	–
CC1OC(OCC2COC(O)(Oc3c(-c4ccc(O)c(O)c4)oc4cc(O)cc(O)c4c3=O)C(O)C2O)C(O)C(O)C1O (stereo unspecified)	> 100 µM	> 100 µM	> 100 µM	> 100 µM	> 100 µM	> 100 µM	> 100 µM	> 100 µM	> 100 µM	–	–	–	–	–	–	–	–	–	–
CC1=C(C(=O)Nc2ccc(Cl)c(Cl)c2)C(c2ccco2)C(C(=O)Nc2ccc(Cl)c(Cl)c2)=C(C)N1	27.6 µM	27.7 µM	42.4 µM	20.5 µM	29.9 µM	21.7 µM	26.9 µM	29.3 µM	31.6 µM	–	–	–	–	–	–	–	–	–	–
CCOC(=O)c1cn(Cc2ccccc2)c(=O)n1Cc1ccccc1	> 100 µM	> 100 µM	> 100 µM	> 100 µM	> 100 µM	> 100 µM	> 100 µM	> 100 µM	> 100 µM	–	–	–	–	–	–	–	–	–	–
O=[N+]([O-])c1nccn1COCCF	> 100 µM	> 100 µM	> 100 µM	> 100 µM	> 100 µM	> 100 µM	> 100 µM	> 100 µM	> 100 µM	–	–	–	–	–	–	–	–	–	–
COc1ccc(/C=C2\CCC(C)(CN(C)C)C2=O)cc1 (stereo unspecified)	> 100 µM	> 100 µM	> 100 µM	> 100 µM	> 100 µM	> 100 µM	> 100 µM	> 100 µM	> 100 µM	–	–	–	–	–	–	–	–	–	–
Cc1ccc(C)c(NC(=O)CC/C(=N\NC(=O)C(N)=O)C(C)C(=O)c2ccc(O)cc2)c1 (stereo unspecified)	> 100 µM	> 100 µM	> 100 µM	> 100 µM	> 100 µM	> 100 µM	> 100 µM	> 100 µM	> 100 µM	–	–	–	–	–	–	–	–	–	–
CC(C)(C)C(=O)C1CC(=O)c2ccccc2C1=O (stereo unspecified)	62.9 µM	> 100 µM	43.6 µM	> 100 µM	–	67.8 µM	72.8 µM	> 100 µM	> 100 µM	–	–	–	–	–	–	–	–	–	–
NC(=S)N/N=C1/C(=O)N(c2ccc(Cl)cc2Cl)C(=O)C(=O)C1c1nc2ccccc2s1 (stereo unspecified)	> 100 µM	> 100 µM	–	> 100 µM	> 100 µM	> 100 µM	> 100 µM	> 100 µM	> 100 µM	–	–	–	–	–	–	–	–	–	–
O=C1CCC2(CC1)SCCCS2	> 100 µM	–	> 100 µM	> 100 µM	> 100 µM	> 100 µM	> 100 µM	> 100 µM	> 100 µM	–	–	–	–	–	–	–	–	–	–
Cc1cc(O)cc2c1O[C@@]1(C)CCC3[C@@]4(C)CC[C@H](O)C(C)(C)C4CC[C@@]3(C)[C@H]1C2 (stereo partly specified)	–	6.43 µM	13.5 µM	6.16 µM	28.2 µM	22.6 µM	19 µM	–	17.5 µM	–	–	–	–	–	–	–	–	–	–
Cc1cc(Cl)cc2c1NC(=O)C2(O)C(C)C(=O)c1ccc(Cl)cc1 (stereo unspecified)	> 100 µM	> 100 µM	43.5 µM	> 100 µM	> 100 µM	> 100 µM	> 64.7 µM	> 100 µM	> 100 µM	–	–	–	–	–	–	–	–	–	–
CCOC(=O)/C(=C/c1ccc(C#N)cc1)N(CC)CC	> 100 µM	> 100 µM	> 100 µM	30 µM	> 100 µM	> 100 µM	> 100 µM	> 100 µM	> 100 µM	–	–	–	–	–	–	–	–	–	–
O=c1c2ccccc2c2nc3ccccc3nc2n1C1CCCCC1	–	> 100 µM	–	> 100 µM	> 100 µM	> 100 µM	> 100 µM	> 100 µM	–	–	–	–	–	–	–	–	–	–	–
COc1ccc(C(c2c(O)c3ccccc3n(C)c2=O)c2c(O)c3ccccc3n(C)c2=O)cc1	–	63.3 µM	90.7 µM	> 100 µM	> 100 µM	> 100 µM	54.6 µM	> 100 µM	> 100 µM	–	–	–	–	–	–	–	–	–	–
COc1ccc2nc3ccccc3c(NCCCCCCN(C)CCCl)c2c1	3.03 µM	2.11 µM	–	2.88 µM	2.38 µM	–	2.16 µM	3.25 µM	1.46 µM	–	–	–	–	–	–	–	–	–	–
CN(C)CC1(C)CC/C(=C\c2ccccc2)C1=O (stereo unspecified)	> 100 µM	> 100 µM	–	> 100 µM	> 100 µM	> 100 µM	> 100 µM	> 100 µM	> 100 µM	–	–	–	–	–	–	–	–	–	–
